Data as given in patent publication US7999006B2, “Methods of using MEK inhibitors” (Exelixis, Inc., priority 2006, dated 2011).

Test system: WM-266-4 xenograft tumors
Assay: WM-266-4 human melanoma xenograft model
Type: in vivo
Settings: WM-266-4 xenograft tumors in female nude mice, staged at 112±6 mg; MEK compound 10 mg/kg PO qd x 14 (AM); rapamycin 5 mg/kg IP qd x 14 (PM); single agents or combination
Protocol: For subcutaneous or intradermal tumors, the mean tumor weight of each animal in the respective control and treatment groups was determined twice weekly during the study. Tumor weight (TW) was determined by measuring perpendicular diameters with a caliper, using the following formula: tumor weight (mg)=[tumor volume=length (mm)×width^2 (mm^2)]/2.
Percent inhibition of tumor growth (TGI) is determined with the following formula:
[formula] where X0=average TW of all tumors on group day; Xf=TW of treated group on Day f; Yf=TW of vehicle control group on Day f
[formula] TGI is calculated individually for each tumor to obtain a mean±SEM value for each experimental group. Statistical significance is determined using the 2-tailed Student's t-test (significance defined as P<0.05).
The WM-266-4 human melanoma cell line is PTEN-deficient, and harbors a heterozygous activating mutation in the gene encoding B-Raf. Therefore, the ability of a MEK inhibitor administered as monotherapy, and in combination with the mTOR inhibitor rapamycin, was examined to inhibit the growth of WM-266-4 xenograft tumors in nude mice.
Tumors were established in female nude mice and staged when the tumors reached 112±6 mg. […]

SMILES: CO[C@H]1C[C@@H]2CC[C@@H](C)[C@@](O)(O2)C(=O)C(=O)N2CCCC[C@H]2C(=O)O[C@H]([C@H](C)C[C@@H]2CC[C@@H](O)[C@H](OC)C2)CC(=O)[C@H](C)/C=C(\C)[C@@H](O)[C@@H](OC)C(=O)[C@H](C)C[C@H](C)/C=C/C=C/C=C/1C [Rapamycin, rapamycin]
- TGI (%), tumor growth inhibition: 60%
